From ChEMBL document CHEMBL4483862, “Open-source discovery of chemical leads for next-generation chemoprotective antimalarials” (2018) come the findings set out here.

Some results are limits rather than exact numbers.

The subject of this test is Plasmodium berghei. The experiment in a line: Luciferase/luciferin-expressing antifolate-resistant parasites were used to infect a culture of HepG2 cells that were pre-incubated with compounds. Infected hepatocytes emit light due to the luciferase reaction. Assay results are presented as the percent inhibition of light emission compared to control. […]. In kind it is functional. The settings on record: sporozoite; for IC90: read-out: LUCIFERASE INFECTION ASSAY - IC90.

In the case of `O=C(OC1CCCCC1)c1ccc(NC(=O)C2CCCCC2)cc1`, the IC90 (as a rule, the point of the concentration-response curve where the effect stands at 90%) was greater than 10 µM. Besides, the IC50 (as a rule, the point on the concentration scale where inhibition reaches its midpoint) (PBLUC_HILL_SLOPE 6.21, PBLUC_R_SQUARED 0.113, read-out: LUCIFERASE INFECTION ASSAY - IC50) is 9.48 µM.
As for `CC(C)c1ccc(NC(=O)Nc2nc(C(N)C3CCCCC3)cs2)cc1` (configuration not stated), the IC90 was greater than 8.86 µM. Further, the IC50 (PBLUC_HILL_SLOPE 7.05, PBLUC_R_SQUARED 0.602, read-out: LUCIFERASE INFECTION ASSAY - IC50) was determined as 7.75 µM.
On to `O=C(Nc1ccccc1)N1CCc2sccc2C1c1ccc(C(F)(F)F)cc1` (configuration not stated), for which the IC90 turned out to be 5.93 µM. Moreover, where the note is “PBLUC_HILL_SLOPE 6.19, PBLUC_R_SQUARED 0.577, read-out: LUCIFERASE INFECTION ASSAY - IC50”, the concentration for half-maximal inhibition (IC50) worked out at 4.16 µM.
Take `OC1(c2ccc(F)cc2)CS/C(=N\c2cccnc2)N1Cc1ccco1` (configuration not stated): the IC90 was greater than 10 µM. The half-inhibitory concentration (IC50) (PBLUC_HILL_SLOPE 6.5, PBLUC_R_SQUARED 0.331, read-out: LUCIFERASE INFECTION ASSAY - IC50) is 8.78 µM.
For the molecule `O=C(Nc1ccc(OC(F)F)c(Cc2ccccc2)c1)c1ccc(-n2ccnc2)nc1`, the IC90 was greater than 10 µM. Also, the IC50 (PBLUC_HILL_SLOPE 6.37, PBLUC_R_SQUARED 0.721, read-out: LUCIFERASE INFECTION ASSAY - IC50) is 8.94 µM.
For the molecule `COc1ccc(-n2c(C)cc(/C=C(\C#N)C(=O)NCC(c3cccs3)N3CCOCC3)c2C)cc1` (configuration not stated), the concentration for an effect of 90% (IC90) is greater than 10 µM. Moreover, the IC50 (PBLUC_HILL_SLOPE 6.75, PBLUC_R_SQUARED 0.0585, read-out: LUCIFERASE INFECTION ASSAY - IC50) is greater than 10 µM.
Regarding `COCCCN1C(=O)N(Cc2ccccc2)C(=O)C12CCN(CCC(C)c1ccc(C)o1)CC2` (configuration not stated), the concentration for an effect of 90% (IC90) is greater than 7.06 µM. Also, where the note is “PBLUC_HILL_SLOPE 7.49, PBLUC_R_SQUARED 0.22, read-out: LUCIFERASE INFECTION ASSAY - IC50”, the IC50 was 6.36 µM.
As to `COC(=O)c1cc(NC(=O)Nc2cc(Cl)cc(Cl)c2)ccc1N1CCOCC1`, the 90% effect concentration (IC90) is 4.16 µM. The IC50 (PBLUC_HILL_SLOPE 7.3, PBLUC_R_SQUARED 0.704, read-out: LUCIFERASE INFECTION ASSAY - IC50) came out at 3.08 µM.
In the case of `COc1ccc(-c2cc([N+](=O)[O-])ccc2OC(C)C(=O)N2CCC(C)CC2)cc1` (configuration not stated), the IC90 was found to be 4.24 µM. Moreover, the IC50 (PBLUC_HILL_SLOPE 7.12, PBLUC_R_SQUARED 0.553, read-out: LUCIFERASE INFECTION ASSAY - IC50) turned out to be 3.11 µM.
As to `Cc1ccccc1OCC(O)CN(CC(C)C)CC(C)C` (configuration not stated), the 90% effect concentration (IC90) is greater than 10 µM. Further, where the note is “PBLUC_HILL_SLOPE 6.96, PBLUC_R_SQUARED 0.782, read-out: LUCIFERASE INFECTION ASSAY - IC50”, the IC50 amounted to 8.86 µM.
In the case of `COc1ccc(-c2cnc3cnc(-c4ccccc4)cn23)cn1`, the IC90 was greater than 10.9 µM. Further, the IC50 (PBLUC_HILL_SLOPE 7.01, PBLUC_R_SQUARED 0.635, read-out: LUCIFERASE INFECTION ASSAY - IC50) came out at 9.42 µM.
Consider `COc1ccc(-c2cnc3cnc(-c4ccc(CO)cc4)cn23)cn1`, for which the concentration for an effect of 90% (IC90) was found to be 9.63 µM. Besides, the IC50 (PBLUC_HILL_SLOPE 6.35, PBLUC_R_SQUARED 0.601, read-out: LUCIFERASE INFECTION ASSAY - IC50) is 6.81 µM.
Take `CC(Cn1cccn1)NC(=O)C(=O)Nc1ccccc1SC1CCCC1` (configuration not stated): the IC90 was 5.88 µM. The IC50 (PBLUC_HILL_SLOPE 6.42, PBLUC_R_SQUARED 0.787, read-out: LUCIFERASE INFECTION ASSAY - IC50) was 4.18 µM.
With `Cc1nn(-c2ccccc2)c(C)c1C(=O)NCc1cccc(NC(=O)C(C)C)c1`, the IC90 stood at 7.7 µM. Further, the IC50 (PBLUC_HILL_SLOPE 6.57, PBLUC_R_SQUARED 0.408, read-out: LUCIFERASE INFECTION ASSAY - IC50) amounted to 5.51 µM.
Turning to `O=[N+]([O-])c1ccc(Oc2c(Cl)cc(S(=O)(=O)N3CCCCC3)cc2Cl)c(Cl)c1`, the concentration for an effect of 90% (IC90) is greater than 7.09 µM. Besides, for the setting “PBLUC_HILL_SLOPE 7.39, PBLUC_R_SQUARED 0.0349, read-out: LUCIFERASE INFECTION ASSAY - IC50”, the IC50 was greater than 7.09 µM.
For `CC(C)(C)C(=O)Nc1ccc(-c2csc(-n3nccc3C(F)(F)F)n2)cc1`, the IC90 was greater than 10 µM. In addition, the IC50 (PBLUC_HILL_SLOPE 6.43, PBLUC_R_SQUARED 0.126, read-out: LUCIFERASE INFECTION ASSAY - IC50) was found to be 8.51 µM.
Consider `CSc1nnnn1-c1cccc(NC(=O)c2cc(-c3cccs3)nc3c2cnn3C(C)C)c1`, for which the concentration for an effect of 90% (IC90) is greater than 10 µM. For the same molecule, where the note is “PBLUC_HILL_SLOPE 6.42, PBLUC_R_SQUARED 0.137, read-out: LUCIFERASE INFECTION ASSAY - IC50”, the IC50 was greater than 10 µM.
For `N#C/C(=N\Nc1cccc(Cl)c1Cl)C(N)=S`, the IC90 was greater than 12.1 µM. Where the note is “PBLUC_HILL_SLOPE 7.41, PBLUC_R_SQUARED 0.441, read-out: LUCIFERASE INFECTION ASSAY - IC50”, the half-maximal inhibitory concentration (IC50) is greater than 12.1 µM.
As for `CC(C)(C)OC(=O)NC1CCN(C(=O)Nc2cc(Cl)cc(Cl)c2)CC1`, the IC90 is greater than 8.5 µM. Further, where the note is “PBLUC_HILL_SLOPE 7.08, PBLUC_R_SQUARED 0.106, read-out: LUCIFERASE INFECTION ASSAY - IC50”, the IC50 was greater than 8.5 µM.
For `OC(c1ccc(Cl)cc1)c1nnc(Nc2ccc(Oc3ccccc3)cc2)s1` (configuration not stated), the IC90 is greater than 10 µM. The IC50 (PBLUC_HILL_SLOPE 7.15, PBLUC_R_SQUARED 0.699, read-out: LUCIFERASE INFECTION ASSAY - IC50) came to 8.48 µM.
For `CC(C)(O)C#Cc1ccc(/C=N/Nc2cccc(C(F)(F)F)n2)cc1`, the IC90 was 6.05 µM. Moreover, the IC50 (PBLUC_HILL_SLOPE 6.25, PBLUC_R_SQUARED 0.631, read-out: LUCIFERASE INFECTION ASSAY - IC50) is 4.26 µM.
On to `CNc1nc2cnc(-c3cncc(OC)c3)cc2n1Cc1ccc(OC)c(OC)c1`, for which the IC90 is greater than 10 µM. Under “PBLUC_HILL_SLOPE 6.98, PBLUC_R_SQUARED 0.0782, read-out: LUCIFERASE INFECTION ASSAY - IC50”, the IC50 came out at 8.17 µM.
Regarding `Fc1cccc(Cl)c1CSc1nnc(-c2cc(C(F)(F)F)cc(C(F)(F)F)c2)[nH]1`, the IC90 is greater than 7.24 µM. Moreover, the IC50 (PBLUC_HILL_SLOPE 6.81, PBLUC_R_SQUARED 0.556, read-out: LUCIFERASE INFECTION ASSAY - IC50) is greater than 7.24 µM.
In the case of `Cc1ccc(CN(C)C(=O)C2CCN(c3ncnc4sc(C)c(C)c34)CC2)o1`, the IC90 is greater than 10 µM. In addition, the IC50 (PBLUC_HILL_SLOPE 6.95, PBLUC_R_SQUARED 0.517, read-out: LUCIFERASE INFECTION ASSAY - IC50) amounted to 8.99 µM.
In the case of `CC(OC(=O)CCc1nc2cc(Cl)ccc2n(Cc2ccccc2)c1=O)C(=O)N1CCCC1` (configuration not stated), the IC90 was 5 µM. In addition, the IC50 (PBLUC_HILL_SLOPE 7.3, PBLUC_R_SQUARED 0.693, read-out: LUCIFERASE INFECTION ASSAY - IC50) was determined as 3.7 µM.
For `CCCS(=O)(=O)/C(C#N)=N/Nc1cc(C(F)(F)F)cc(C(F)(F)F)c1`, the IC90 was 4.41 µM. Moreover, where the note is “PBLUC_HILL_SLOPE 6.87, PBLUC_R_SQUARED 0.748, read-out: LUCIFERASE INFECTION ASSAY - IC50”, the IC50 came out at 3.21 µM.
In the case of `O=C(Nc1ccccc1)Nc1cncc(C#Cc2ccccc2)c1`, the IC90 was found to be 10.2 µM. Besides, the IC50 (PBLUC_HILL_SLOPE 6.32, PBLUC_R_SQUARED 0.624, read-out: LUCIFERASE INFECTION ASSAY - IC50) was 7.23 µM.
In the case of `Cc1c(-c2ccccc2)oc2c(C(=O)N3CCc4ccccc4C3)cccc2c1=O`, the IC90 was greater than 10 µM. For the same molecule, the IC50 (PBLUC_HILL_SLOPE 6.24, PBLUC_R_SQUARED 0.0221, read-out: LUCIFERASE INFECTION ASSAY - IC50) was greater than 10 µM.
For `C#CCOc1ccc(CNCCc2ccccc2)cc1OCC`, the IC90 was greater than 9.54 µM. Moreover, the IC50 (PBLUC_HILL_SLOPE 6.85, PBLUC_R_SQUARED 0.0184, read-out: LUCIFERASE INFECTION ASSAY - IC50) is greater than 9.54 µM.
For the molecule `CCCCOc1ccc(Nc2nc(C(N)c3ccccc3Cl)cs2)nn1` (configuration not stated), the IC90 came out at 8.44 µM. The IC50 (PBLUC_HILL_SLOPE 6.47, PBLUC_R_SQUARED 0.485, read-out: LUCIFERASE INFECTION ASSAY - IC50) amounted to 6.01 µM.
For `Cc1ccccc1-c1cn2c(-c3ccc(Cl)cc3)cnc2cn1`, the IC90 stood at 5.18 µM. Also, the IC50 (PBLUC_HILL_SLOPE 7.25, PBLUC_R_SQUARED 0.317, read-out: LUCIFERASE INFECTION ASSAY - IC50) was found to be 3.83 µM.
For the molecule `COc1ccc(C2CC(c3ccccc3)=Nc3ccccc3S2)cc1` (configuration not stated), the IC90 is greater than 9.55 µM. The IC50 (PBLUC_HILL_SLOPE 6.73, PBLUC_R_SQUARED 0.0739, read-out: LUCIFERASE INFECTION ASSAY - IC50) was greater than 9.55 µM.
For `CCCn1c(NC(=O)C2CCCCN2S(=O)(=O)c2ccccc2)nc2ccccc21` (configuration not stated), the IC90 was 7.71 µM. Under “PBLUC_HILL_SLOPE 7.3, PBLUC_R_SQUARED 0.749, read-out: LUCIFERASE INFECTION ASSAY - IC50”, the IC50 was found to be 5.71 µM.
For `COc1ccc(-c2cc(-c3cc(C)ccc3O)c3c(n2)-c2ccccc2C3=O)cc1`, the IC90 was greater than 10 µM. Further, for the setting “PBLUC_HILL_SLOPE 6.66, 3.32, PBLUC_R_SQUARED 0.385, 0.180, read-out: LUCIFERASE INFECTION ASSAY - IC50”, the IC50 was 9.15 µM.
In the case of `NNc1nc(C(F)(F)F)nc2c1cnn2-c1ccccc1`, the IC90 is 5.03 µM. Moreover, where the note is “PBLUC_HILL_SLOPE 6.68, PBLUC_R_SQUARED 0.4, read-out: LUCIFERASE INFECTION ASSAY - IC50”, the half-inhibitory concentration (IC50) was found to be 3.62 µM.
For `Cc1nc(-c2ccccn2)nc(NCCc2ccccc2)c1Cl`, the IC90 stood at 5.38 µM. Also, the IC50 (PBLUC_HILL_SLOPE 7.11, PBLUC_R_SQUARED 0.141, read-out: LUCIFERASE INFECTION ASSAY - IC50) came out at 3.95 µM.
